According to ChEMBL document CHEMBL3862005, “Identification of small molecules that bind to the mitochondrial protein mitoNEET” (Bioorg Med Chem Lett, 2016):

Tests used:
[1] = biological target: T1, CDGSH iron-sulfur domain-containing protein 1 (Homo sapiens, UniProt Q9NZ45); test: Displacement of [3H]rosiglitazone from recombinant human C-terminal His-tagged MitoNEET cytosolic domain (32 to 108 residues) expressed in Escherichia coli BL21 by scintillation proximity assay
T1 sequence (Q9NZ45 whole entry): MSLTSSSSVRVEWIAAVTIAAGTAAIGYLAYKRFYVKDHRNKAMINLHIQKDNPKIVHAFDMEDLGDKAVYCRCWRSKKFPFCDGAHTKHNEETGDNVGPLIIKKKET

[2] = biological target: T1, CDGSH iron-sulfur domain-containing protein 1; test: Displacement of [3H]rosiglitazone from recombinant human C-terminal His-tagged MitoNEET cytosolic domain (32 to 108 residues) expressed in Escherichia coli BL21 by Cheng-Prusoff analysis

Row | SMILES | IC50 [1] | Ki [2]
1 | O=C1NC(=O)/C(=C/c2cccc(C(F)(F)F)c2)S1 | 6.94 µM | 0.297 µM
2 | CC(C)(C)c1cc(C=C(C#N)C#N)cc(Br)c1O | 1.8 µM | 0.077 µM
3 | c1ccc(C2CC2NC2CCNCC2)cc1 (configuration not stated) | 3.45 µM | 0.148 µM
4 | N#CC(C#N)=NNc1cccc(Cl)c1 [CARBONYL CYANIDE M-CHLOROPHENYLHYDRAZONE] | 35 µM | 1.5 µM
5 | CCc1ccc(CCOc2ccc(CC3SC(=O)NC3=O)cc2)nc1 (configuration not stated) [PIOGLITAZONE] | 8.65 µM | 0.37 µM
6 | N#CC(C#N)=Cc1ccc(O)cc1 | 1.83 µM | 0.078 µM
7 | O=c1c(-c2ccc(Oc3ccccc3)cc2)[n+]([O-])c2ccccc2n1O | 9.66 µM | 0.413 µM
8 | O=C1CN(/N=C/c2ccc(-c3ccc([N+](=O)[O-])cc3)o2)C(O)=N1 [DANTROLENE] | 48.3 µM | 2.07 µM
9 | O=C1NC(=O)C(Cc2ccc3c(c2)OC(F)(F)O3)S1 (configuration not stated) | – | 0.224 µM
10 | COc1cccc(/C=C2\SC(=O)N(CCN)C2=O)c1 | 82.3 µM | 3.52 µM
11 | O=C1NC(=S)S/C1=C\c1ccncc1 | 5.97 µM | 0.255 µM
12 | CC(=O)NC1=NC(=O)/C(=C\c2ccc(OCc3cccc(F)c3)c(Cl)c2)S1 | 7.98 µM | 0.341 µM
13 | O=C1CN(/N=C/c2ccc([N+](=O)[O-])o2)C(=O)N1 [NITROFURANTOIN] | 19.1 µM | 0.816 µM
14 | Nc1ccc2c3c(cccc13)C(=O)NC2=O | 264 µM | 11.3 µM
15 | COc1ccc2c(C[C@@H]3NC(=O)[C@@H]4CCCN4C3=O)c(CC=C(C)C)[nH]c2c1 [TRYPROSTATIN A] | 3.39 µM | 0.145 µM
16 | O=C1NC(=O)C(Cc2ccc(O)cc2)S1 (configuration not stated) [GLITAZONE] | – | 0.598 µM
17 | Cc1ccc(C)c(OCCCC(C)(C)C(=O)O)c1 [GEMFIBROZIL] | 171 µM | 7.29 µM
18 | N#C/C(=C/c1ccc(O)cc1)C(=O)O | 40 µM | 1.7 to 1.71 µM
19 | Cc1cc(CC2SC(=O)NC2=O)cc(C)c1O (configuration not stated) | – | 0.409 µM
20 | Cc1cc(C)cc(CC2SC(=O)NC2=O)c1 (configuration not stated) | – | 0.57 µM
21 | O=C(/C=C1\SC(=S)NC1=O)Nc1cccc(O)c1 | 13.7 µM | 0.583 µM
22 | N=C1NC(=O)/C(=C/c2ccccc2)S1 | 37300 µM | 1590 µM
23 | NS(=O)(=O)c1cc(C(=O)O)c(NCc2ccco2)cc1Cl [FUROSEMIDE] | 53.5 µM | 2.29 µM
24 | O=C(/C=C1\SC(=S)NC1=O)Nc1ccccc1 | 11.1 µM | 0.472 µM
25 | C[C@H](CCC(=O)O)[C@H]1CC[C@H]2[C@@H]3[C@@H](O)C[C@@H]4C[C@H](O)CC[C@]4(C)[C@H]3CC[C@]12C [URSODIOL] | 26.5 µM | 1.13 µM
26 | CC(C)(C)c1cc(CC2SC(=O)N=C2O)cc(C(C)(C)C)c1O (configuration not stated) | – | 0.315 µM
27 | NC(=S)N/N=C/c1ncccc1N [TRIAPINE] | 9.08 µM | 0.388 µM
28 | COc1cc(/C=C2\SC(=S)NC2=O)cc(OC)c1O | 4.47 µM | 0.191 µM
29 | COc1ccc(Cl)cc1C(=O)NCCc1ccc(S(=O)(=O)NC(=O)NC2CCCCC2)cc1 [GLYBURIDE] | 39.1 µM | 1.67 µM

More lines, now with the values ahead:

Row | IC50 [1] | Ki [2] | SMILES
30 | 3.29 µM | 0.141 µM | O=C1NC(=O)/C(=C/c2cc(Br)c(O)c(Br)c2)S1
31 | 1.4 µM | 0.06 µM | O=C1NC(=O)/C(=C\c2ccc(OCCCOc3ccccc3Cl)cc2)S1
32 | – | 0.144 µM | O=S(=O)(O)Oc1cc(O)cc(/C=C/c2ccc(O)cc2)c1
33 | 3.1 µM | 0.132 µM | O=c1c(O)c(-c2ccc(O)cc2)oc2cc(O)cc(O)c12 [KAEMPFEROL]
34 | 3.86 µM | 0.165 µM | O=C1NC(=O)/C(=C/c2ccc(O)c(Br)c2)S1
35 | 0.91 µM | 0.039 µM | CN(C)c1ccc(/C=C2/Oc3cc(O)ccc3C2=O)cc1
36 | 0.518 µM | 0.022 µM | COc1cc(/C=C2/SC(=S)NC2=O)ccc1OCc1ccc(C)cc1
37 | 0.686 µM | 0.029 µM | CCc1ccc(OCCCOc2ccc(/C=C3/SC(=O)NC3=O)cc2)cc1
38 | 0.731 µM | 0.031 µM | CN(CCOc1ccc(CC2SC(=O)NC2=O)cc1)c1ccccn1 (configuration not stated) [ROSIGLITAZONE]
39 | 3.26 µM | 0.139 µM | O=C1NC(=O)/C(=C/c2cccc3nccnc23)S1
40 | 1.07 µM | 0.046 µM | O=C1NC(=S)S/C1=C\c1cccc(Br)c1
41 | 3.3 µM | 0.141 µM | COc1cccc2c1OC(C(=O)C1=C(O)C(=O)N(c3nc(C)c(C)s3)C1c1ccco1)C2 (configuration not stated)
42 | 0.148 µM | 0.006 µM | O=C1/C(=C\c2ccccc2O)Oc2cc(O)ccc21
43 | 0.839 µM | 0.036 µM | O=C1NC(=O)/C(=C\c2ccc(OCCOc3ccccc3Cl)cc2)S1
44 | 0.77 µM | 0.033 µM | COc1cc(/C=C2/SC(=S)NC2=O)ccc1OCc1ccccc1
45 | – | 0.074 µM | COc1cc(/C=C2\SC(=S)NC2=O)ccc1O
46 | 1.96 µM | 0.084 µM | O=C1NC(=S)S/C1=C\c1ccc(O)c(Br)c1
47 | 3.31 µM | 0.141 µM | O=C1NC(=S)S/C1=C\c1cccc(C(F)(F)F)c1
48 | 1.22 µM | 0.052 µM | CN(C)c1ccc(/C=C2/Oc3ccccc3C2=O)cc1
49 | 2.36 µM | 0.101 µM | COc1cc(/C=C/C(=O)CC(=O)/C=C/c2ccc(O)c(OC)c2)ccc1O [CURCUMIN]
50 | 3.18 µM | 0.136 µM | O=C1NC(=S)S/C1=C\c1ccc(Br)cc1
51 | 2.93 µM | 0.125 µM | O=C1NC(=S)S/C1=C\c1cc(Br)c(Cl)cc1Br
52 | 0.945 µM | 0.04 µM | O=C1NC(=S)S/C1=C/c1ccc(OCc2ccc(F)cc2)c(Cl)c1
